# ChEMBL document CHEMBL3585328, “Colloidal and antibacterial properties of novel triple-headed, double-tailed amphiphiles: exploring structure-activity relationships and synergistic mixtures” (Bioorg Med Chem, 2015)
# Calls of active or inactive are those of the source. The rule behind the calls is not given here.
# What was measured:
# Staphylococcus aureus [1] = experiment: Antibacterial activity against Staphylococcus aureus subsp. aureus ATCC 29213 assessed as inhibition of bacterial growth incubated for 72 hrs by CLSI based method; assay type: functional; settings: ATCC 29213, 72 h
# Enterococcus faecalis [2] = experiment: Bactericidal activity against Enterococcus faecalis ATCC 29212 assessed as inhibition of bacterial growth incubated for 72 hrs followed by culture growth in Todd-Hewitt agar medium and incubated for 24 hrs at 37 degC; assay type: functional, organism-based
# Streptococcus agalactiae [3] = experiment: Bactericidal activity against Streptococcus agalactiae J48 assessed as inhibition of bacterial growth incubated for 72 hrs followed by culture growth in Todd-Hewitt agar medium and incubated for 24 hrs at 37 degC; assay type: functional, organism-based
# Staphylococcus aureus [4] = experiment: Bactericidal activity against Staphylococcus aureus subsp. aureus ATCC 29213 assessed as inhibition of bacterial growth incubated for 72 hrs followed by culture growth in Todd-Hewitt agar medium and incubated for 24 hrs at 37 degC; assay type: functional, organism-based
# Bacillus cereus [5] = experiment: Bactericidal activity against Bacillus cereus assessed as inhibition of bacterial growth incubated for 72 hrs followed by culture growth in Todd-Hewitt agar medium and incubated for 24 hrs at 37 degC; assay type: functional, organism-based
# Bacillus cereus [6] = experiment: Antibacterial activity against Bacillus cereus assessed as inhibition of bacterial growth incubated for 72 hrs by CLSI based method; assay type: functional
# Streptococcus agalactiae [7] = experiment: Antibacterial activity against Streptococcus agalactiae J48 assessed as inhibition of bacterial growth incubated for 72 hrs by CLSI based method; assay type: functional; settings: J48, 72 h
# Pseudomonas aeruginosa [8] = experiment: Bactericidal activity against Pseudomonas aeruginosa ATCC 27853 assessed as inhibition of bacterial growth incubated for 72 hrs followed by culture growth in Todd-Hewitt agar medium and incubated for 24 hrs at 37 degC; assay type: functional, organism-based
# Pseudomonas aeruginosa [9] = experiment: Antibacterial activity against Pseudomonas aeruginosa ATCC 27853 assessed as inhibition of bacterial growth incubated for 72 hrs by CLSI based method; assay type: functional; settings: ATCC 27853, 72 h
# Escherichia coli [10] = experiment: Antibacterial activity against Escherichia coli ATCC 25922 assessed as inhibition of bacterial growth incubated for 72 hrs by CLSI based method; assay type: functional; settings: ATCC 25922, 72 h
# Enterococcus faecalis [11] = experiment: Antibacterial activity against Enterococcus faecalis ATCC 29212 assessed as inhibition of bacterial growth incubated for 72 hrs by CLSI based method; assay type: functional; settings: ATCC 29212, 72 h
# [12] = Critical aggregation concentration by at 37 degC isothermal titration calorimetry method; assay type: ADME
# Escherichia coli [13] = experiment: Bactericidal activity against Escherichia coli ATCC 25922 assessed as inhibition of bacterial growth incubated for 72 hrs followed by culture growth in Todd-Hewitt agar medium and incubated for 24 hrs at 37 degC; assay type: functional, organism-based
MIC (Staphylococcus aureus [1]),MIC (Bacillus cereus [6]),MIC (Streptococcus agalactiae [7]),MIC (Pseudomonas aeruginosa [9]),MIC (Escherichia coli [10]),MIC (Enterococcus faecalis [11]),CAC [12],Compound,Activity (Enterococcus faecalis [2]),Activity (Streptococcus agalactiae [3]),Activity (Staphylococcus aureus [4]),Activity (Bacillus cereus [5]),Activity (Pseudomonas aeruginosa [8]),Activity (Escherichia coli [13])
4 µM,4 µM,2 µM,125 µM,8 µM,4 µM,0.61 mM,CCCCCCCCCCCCCC[N+](C)(C)Cc1cc(C[N+](C)(C)C)cc(C[N+](C)(C)CCCCCCCCCCCCCC)c1.[Br-].[Br-].[Br-],Active,Active,Active,Active,Active,Active
> 250 µM,> 250 µM,> 250 µM,> 250 µM,> 250 µM,> 250 µM,0.18 mM,CCCCCCCCCCCCCCCC[N+](C)(C)Cc1cc(C[n+]2ccccc2)cc(C[N+](C)(C)CCCCCCCCCCCCCCCC)c1.[Br-].[Br-].[Br-],Active,Active,Active,Active,Active,Active
4 µM,8 µM,4 µM,63 µM,16 µM,4 µM,0.6 mM,CCCCCCCCCCCCCC[N+](C)(C)Cc1cc(C[n+]2ccccc2)cc(C[N+](C)(C)CCCCCCCCCCCCCC)c1.[Br-].[Br-].[Br-],Active,Active,Active,Active,Active,Active
,,,6.4 µM,,,,NC[C@H]1O[C@H](O[C@H]2[C@H](O)[C@@H](O[C@H]3O[C@H](CO)[C@@H](O)[C@H](N)[C@H]3O)[C@H](N)C[C@@H]2N)[C@H](N)C[C@@H]1O [TOBRAMYCIN],,,,,,
2 µM,8 µM,8 µM,63 µM,16 µM,8 µM,14 mM,CCCCCCCCCC[N+](C)(C)Cc1cc(C[n+]2ccccc2)cc(C[N+](C)(C)CCCCCCCCCC)c1.[Br-].[Br-].[Br-],Active,Active,Active,Active,Active,Active
16 µM,8 µM,4 µM,> 250 µM,125 µM,8 µM,12 mM,CCCCCCCCCC[N+](C)(C)Cc1cc(C[N+](C)(C)C)cc(C[N+](C)(C)CCCCCCCCCC)c1.[Br-].[Br-].[Br-],Active,Active,Active,Active,Active,Active
> 250 µM,> 250 µM,> 250 µM,> 250 µM,> 250 µM,> 250 µM,,CCCCCCCC[N+](C)(C)Cc1cc(C[n+]2ccccc2)cc(C[N+](C)(C)CCCCCCCC)c1,Active,Active,Active,Active,Active,Active
> 250 µM,> 250 µM,> 250 µM,> 250 µM,> 250 µM,> 250 µM,,CCCCCCCC[N+](C)(C)Cc1cc(C[N+](C)(C)C)cc(C[N+](C)(C)CCCCCCCC)c1,Active,Active,Active,Active,Active,Active
2 µM,2 µM,1 µM,8 µM,4 µM,2 µM,2.4 mM,CCCCCCCCCCCC[N+](C)(C)Cc1cc(C[n+]2ccccc2)cc(C[N+](C)(C)CCCCCCCCCCCC)c1.[Br-].[Br-].[Br-],Active,Active,Active,Active,Active,Active
2 µM,2 µM,2 µM,16 µM,4 µM,2 µM,2.5 mM,CCCCCCCCCCCC[N+](C)(C)Cc1cc(C[N+](C)(C)C)cc(C[N+](C)(C)CCCCCCCCCCCC)c1.[Br-].[Br-].[Br-],Active,Active,Active,Active,Active,Active
16 µM,16 µM,8 µM,> 250 µM,63 µM,32 µM,0.16 mM,CCCCCCCCCCCCCCCC[N+](C)(C)Cc1cc(C[N+](C)(C)C)cc(C[N+](C)(C)CCCCCCCCCCCCCCCC)c1.[Br-].[Br-].[Br-],Active,Active,Active,Active,Active,Active
